# Several values for one entry are separate records, joined by “and”; a condition that tells them apart may be missing. Identical values can stand only once.
# Experiments:
# [1] = test system: CCR2; details: human monocytes and human whole blood; background statement, no reference given; cited from earlier work
# [2] = test system: CCL2; assay: Plasma CCL2 levels by luminex-based immunoassay; format: in vivo, human; details: most patients, 500 mg (n = 17) and 750 mg (n = 4) BID, over the course of study
# Procedure: (§1) The levels of CD14 + CCR2+ IM or other immune-cell phenotypes in the samples from the core needle biopsy, fine-needle aspirate from primary tumor tissue, bone marrow, and peripheral blood were assessed by flow cytometry. CCL2 levels were determined using whole blood plasma by immunoassay using a luminex-based method. The ex vivo inhibition of CCL2-induced pERK by PF-04136309 was measured in whole blood using flow cytometry. Percentages of CD4+, CD8+, and CD4 + FoxP3+ T cells within CD45+ populations were evaluated by flow cytometry in paired fresh biopsy samples from three patients. Two patients provided both baseline and on-study biopsies, and one patient provided a baseline biopsy only.
# [3] = parameters: method as in PMID 27055731; details: cited from earlier work
# [4] = test system: metastatic pancreatic ductal adenocarcinoma; assay: Antitumor response per RECIST version 1.1, mITT population; format: in vivo, human; details: for Best overall response: Complete response / Best overall response: Early death / Best overall response: Indeterminate / Best overall response: Objective progression / Best overall response: Partial response / Best overall response: Stable/no response / Best overall response: Unconfirmed complete response / Best overall response: Unconfirmed partial response / Objective response rate (95% exact CI): mITT; for ORR: 95% exact CI
# Procedure: The modified intent-to-treat (mITT) population was defined as all patients who had received at least one dose of study medication and had measurable disease at baseline assessment (within 28 days prior to study entry). The mITT population was assessed for antitumor response.
# Objective response rate (ORR) was defined as the proportion of patients with confirmed complete response (CR) or confirmed PR according to Response Evaluation Criteria In Solid Tumors, version 1.1, relative to all enrolled patients who had baseline measurable disease. Confirmed responses were those that persisted on repeat imaging ≥4 weeks after initial documentation of response. Indeterminate responses were those with no documented progression and absence of proper assessment of target lesions.
# Patients without on-study radiographic tumor re-evaluation and those who died, progressed, or dropped out for any reason prior to reaching a CR or PR were counted as nonresponders in the assessment of ORR. The ORR, CR, and PR point estimates for each treatment arm were provided along with the corresponding two-sided 95% confidence intervals (CIs) using an exact method.
# Imaging for tumor assessments included computed tomography (CT) or MRI scans of the chest, abdomen, and pelvis; brain CT or MRI scan for patients with known or suspected brain metastases; and bone scan and/or bone X-rays for patients with known or suspected bone metastases.
# [5] = test system: CCL2-induced pERK; assay: Ex vivo CCL2-induced pERK in whole blood by flow cytometry (target engagement); parameters: species or system human; details: most patients, 500 mg (n = 17) and 750 mg (n = 4) BID, over the course of study
# Description: The primary objectives were to evaluate the safety and tolerability of PF-04136309 in combination with nab-paclitaxel/gemcitabine, to characterize the dose-limiting toxicities (DLTs), and determine the RP2D of PF-04136309. Secondary objectives included assessment of PF-04136309 PK analysis and ex vivo inhibition of CCL2-induced extracellular signal-regulated kinase phosphorylation (pERK) as a measure of target engagement. Exploratory objectives included evaluation of CCL2 levels in peripheral blood and the prevalence of IM, TAM, and other relevant immune cells in the peripheral blood, bone marrow, and core needle biopsy of metastases or fine-needle aspirate primary tumor tissue.
# as §1
# [6] = Multiple-dose plasma pharmacokinetics, cycle 1 day 15; format: in vivo, human
# Procedure: The hypothetical mechanisms of action of PF-04136309 were explored by analysis of biopsies, bone marrow aspirates, and peripheral blood (pre- and post-treatment during the study). Serial blood samples were collected from patients to determine the multiple-dose PK of PF-04136309 given in combination with nab-paclitaxel/gemcitabine.
# Blood samples sufficient to provide ≥1 mL of plasma were collected for measurement of PF-04136309 concentrations. Plasma PF-04136309 concentrations were quantified with a validated liquid chromatography–mass spectrometry method. PF-04136309 concentration–time data from cycle 1 day 15 were analyzed using noncompartmental methods to estimate PK parameters.
# [7] = test system: T cells and CCR2+ TAM in tumor biopsy; assay: Immune cells in tumor biopsy samples by flow cytometry; format: in vivo, human
# Procedure: as §1
# [8] = test system: metastatic pancreatic ductal adenocarcinoma; assay: Antitumor response per RECIST version 1.1, mITT population; format: in vivo, human; details: 500 mg group; 2 of 17 with progression events, rest censored; not an appropriate estimate
# [9] = 500-mg BID (n = 13), steady state
# [10] = 500-mg BID group (n = 13), steady state
# [11] = 750-mg BID group (n = 2), individual values
smiles,measurement,setting,value
O=C(NCC(=O)N1CC[C@H](N[C@H]2CC[C@@](O)(c3ccc(-c4ncccn4)cn3)CC2)C1)c1cccc(C(F)(F)F)c1 [PF-04136309],"Effect on CCR2-mediated signal transduction, chemotaxis, and CCL2 binding",[1],block
same,Change in plasma CCL2 levels,[2],increase
same,Proportion of patients achieving partial response vs that anticipated with FOLFIRINOX alone,"[3]; phase Ib, in combination with FOLFIRINOX",significantly increased
same,Pulmonary events reported,"[3]; single agent, non-oncology studies (N = 178) and 39 advanced PDAC patients with FOLFIRINOX",no pulmonary events
same,Safety and tolerability,"[3]; single oral dose up to 1000 mg, repeated oral up to 500 mg BID as single agent or with FOLFIRINOX",generally safe and well tolerated
same,Tolerability,"[3]; with FOLFIRINOX, borderline resectable and locally advanced pancreatic cancer",well-tolerated
same,Best overall response: Complete response,"[4]; 500 mg BID + nab-P/Gem, N = 17",0 n (%)
same,Best overall response: Early death,"[4]; 500 mg BID + nab-P/Gem, N = 17",1 (5.9) n (%)
same,Best overall response: Indeterminate,"[4]; 500 mg BID + nab-P/Gem, N = 17",5 (29.4) n (%)
same,Best overall response: Objective progression,"[4]; 500 mg BID + nab-P/Gem, N = 17",3 (17.6) n (%)
same,Best overall response: Partial response,"[4]; 500 mg BID + nab-P/Gem, N = 17",5 (29.4) n (%)
same,Best overall response: Stable/no response,"[4]; 500 mg BID + nab-P/Gem, N = 17",2 (11.8) n (%)
same,Best overall response: Unconfirmed complete response,"[4]; 500 mg BID + nab-P/Gem, N = 17",0 n (%)
same,Best overall response: Unconfirmed partial response,"[4]; 500 mg BID + nab-P/Gem, N = 17",1 (5.9) n (%)
same,Objective response rate (95% exact CI),"[4]; 500 mg BID + nab-P/Gem, N = 17",5 (29.4) (10.3–56.0) n (%)
same,ORR,"[4]; 500 mg BID group (n = 17), 10.3–56.0%",29.4%
same,Best overall response: Complete response,"[4]; 750 mg BID + nab-P/Gem, N = 4",0 n (%)
same,Best overall response: Early death,"[4]; 750 mg BID + nab-P/Gem, N = 4",0 n (%)
same,Best overall response: Indeterminate,"[4]; 750 mg BID + nab-P/Gem, N = 4",2 (50.0) n (%)
same,Best overall response: Objective progression,"[4]; 750 mg BID + nab-P/Gem, N = 4",0 n (%)
same,Best overall response: Partial response,"[4]; 750 mg BID + nab-P/Gem, N = 4",0 n (%)
same,Best overall response: Stable/no response,"[4]; 750 mg BID + nab-P/Gem, N = 4",1 (25.0) n (%)
same,Best overall response: Unconfirmed complete response,"[4]; 750 mg BID + nab-P/Gem, N = 4",0 n (%)
same,Best overall response: Unconfirmed partial response,"[4]; 750 mg BID + nab-P/Gem, N = 4",1 (25.0) n (%)
same,Objective response rate (95% exact CI),"[4]; 750 mg BID + nab-P/Gem, N = 4",0 (0.0–60.2) n (%)
same,ORR,"[4]; all 21 patients, 8.2–47.2%",23.8%
same,Change in CCL2-induced pERK,[5],drop
same,Coefficient of variation of AUCtau,[6]; [9],30%
same,Coefficient of variation of Cmax,[6]; [9],44%
same,Coefficient of variation of Cmin,[6]; [9],57%
same,Mean AUCtau,[6]; [10],5873 ng·h/mL
same,Mean Cmax,[6]; [10],1276 ng/mL
same,Median Tmax,"[6]; 500-mg BID, oral, with nab-paclitaxel/gemcitabine",1.42 h
same,"AUCtau, observed values",[6]; [11],"10,600 ng·hr/mL and 15,700 ng·hr/mL"
same,"Cmax, observed values",[6]; [11],2950 ng/mL and 3390 ng/mL
same,Change in PD-1 + CD4+ and PD-1 + CD8+ cells in the tumor biopsy sample,"[7]; one patient, data not shown",increase
same,"CCR2+ TAM levels, change","[7]; two patients, 500-mg BID group, individual values, data not shown",~4% to 3%
same,Change in CD4+ and CD8+ cells within CD45+ populations in fresh biopsy tumor samples,"[7]; two patients, 500-mg BID group, baseline vs week 6",increase
same,Median progression-free survival (mPFS),[8],5.3 months
